{"source": "patent US20210323950A1", "about": "“HERBICIDALLY ACTIVE BICYCLIC BENZOYLPYRAZOLES” (Bayer Aktiengesellschaft, priority 2018, published 2021)", "assay_type_in_all_cases": "in vivo", "key": {"[1]": {"test_system": "Abutilon theophrasti (ABUTH)", "test": "Pre-emergence herbicidal action against ABUTH", "conditions": "80 g/ha, scored visually after about 3 weeks vs untreated controls", "excerpt": "(§1) ABUTH: Abutilon theophrasti 1. Pre-Emergence Herbicidal Action and Crop Plant Compatibility Seeds of monocotyledonous and dicotyledonous weed plants and crop plants are placed in plastic or organic planting pots and covered with soil. The compounds of the invention, formulated in the form of wettable powders (WP) or as emulsion concentrates (EC), are then applied onto the surface of the covering soil as aqueous suspension or emulsion with addition of 0.5% additive at a water application rate of […] (converted). After the treatment, the pots are placed in a greenhouse and kept under good growth conditions for the trial plants. After about 3 weeks, the effect of the preparations is scored visually in comparison with untreated controls as percentages. The tables below show the herbicidal activity of numerous compounds according to the invention against important harmful plants. For example, 100% activity=the plants have died, 0% activity=like control plants."}, "[2]": {"test_system": "Amaranthus retroflexus (AMARE)", "test": "Pre-emergence herbicidal action against AMARE", "conditions": "80 g/ha, scored visually after about 3 weeks vs untreated controls", "excerpt": "as §1, with “AMARE: Amaranthus retroflexus” for “ABUTH: Abutilon theophrasti”"}, "Stellaria media (STEME) [3]": {"test_system": "Stellaria media (STEME)", "test": "Pre-emergence herbicidal action against STEME", "conditions": "80 g/ha, scored visually after about 3 weeks vs untreated controls", "excerpt": "as §1, with “STEME: Stellaria media” for “ABUTH: Abutilon theophrasti”"}, "Setaria viridis (SETVI) [4]": {"test_system": "Setaria viridis (SETVI)", "test": "Pre-emergence herbicidal action against SETVI", "conditions": "80 g/ha, scored visually after about 3 weeks vs untreated controls", "excerpt": "as §1, with “SETVI: Setaria viridis” for “ABUTH: Abutilon theophrasti”"}, "[5]": {"test_system": "Abutilon theophrasti (ABUTH)", "test": "Post-emergence herbicidal action against ABUTH", "conditions": "20 g/ha, post-emergence at one-leaf stage, rated visually after about 3 weeks vs untreated controls", "experimental": "(§2) ABUTH: Abutilon theophrasti 2. Post-Emergence Herbicidal Action and Crop Plant Compatibility Seeds of monocotyledonous and dicotyledonous weeds and crop plants are placed in sandy loam in plastic or organic planting pots, covered with soil and cultivated in a greenhouse under controlled growth conditions. 2 to 3 weeks after sowing, the test plants are treated at the one-leaf stage. The compounds of the invention, formulated in the form of wettable powders (WP) or as emulsion concentrates (EC), are then sprayed onto the green parts of the plants as aqueous suspension or emulsion with addition of 0.5% additive at a water application rate of […] (converted). After the test plants had been kept in the greenhouse under optimum growth conditions for about 3 weeks, the activity of the preparations is rated visually in comparison to untreated controls. The tables below show the herbicidal activity of numerous compounds according to the invention against important harmful plants. For example, 100% activity=the plants have died, 0% activity=like control plants."}, "[6]": {"test_system": "Echinochloa crus-galli (ECHCG)", "test": "Pre-emergence herbicidal action against ECHCG", "conditions": "80 g/ha, scored visually after about 3 weeks vs untreated controls", "excerpt": "as §1, with “ECHCG: Echinochloa crus-galli” for “ABUTH: Abutilon theophrasti”"}, "[7]": {"test_system": "Echinochloa crus-galli (ECHCG)", "test": "Post-emergence herbicidal action against ECHCG", "conditions": "20 g/ha, post-emergence at one-leaf stage, rated visually after about 3 weeks vs untreated controls", "experimental": "as §2, with “ECHCG: Echinochloa crus-galli” for “ABUTH: Abutilon theophrasti”"}, "Setaria viridis (SETVI) [8]": {"test_system": "Setaria viridis (SETVI)", "test": "Post-emergence herbicidal action against SETVI", "conditions": "20 g/ha, post-emergence at one-leaf stage, rated visually after about 3 weeks vs untreated controls", "experimental": "as §2, with “SETVI: Setaria viridis” for “ABUTH: Abutilon theophrasti”"}, "Viola tricolor (VIOTR) [9]": {"test_system": "Viola tricolor (VIOTR)", "test": "Pre-emergence herbicidal action against VIOTR", "conditions": "80 g/ha, scored visually after about 3 weeks vs untreated controls", "excerpt": "as §1, with “VIOTR: Viola tricolor” for “ABUTH: Abutilon theophrasti”"}, "Stellaria media (STEME) [10]": {"test_system": "Stellaria media (STEME)", "test": "Post-emergence herbicidal action against STEME", "conditions": "20 g/ha, post-emergence at one-leaf stage, rated visually after about 3 weeks vs untreated controls", "experimental": "as §2, with “STEME: Stellaria media” for “ABUTH: Abutilon theophrasti”"}, "Veronica persica (VERPE)": {"test_system": "Veronica persica (VERPE)", "test": "Pre-emergence herbicidal action against VERPE", "conditions": "80 g/ha, scored visually after about 3 weeks vs untreated controls", "excerpt": "as §1, with “VERPE: Veronica persica” for “ABUTH: Abutilon theophrasti”"}, "[11]": {"test_system": "Amaranthus retroflexus (AMARE)", "test": "Post-emergence herbicidal action against AMARE", "conditions": "20 g/ha, post-emergence at one-leaf stage, rated visually after about 3 weeks vs untreated controls", "experimental": "as §2, with “AMARE: Amaranthus retroflexus” for “ABUTH: Abutilon theophrasti”"}, "Viola tricolor (VIOTR) [12]": {"test_system": "Viola tricolor (VIOTR)", "test": "Post-emergence herbicidal action against VIOTR", "conditions": "20 g/ha, post-emergence at one-leaf stage, rated visually after about 3 weeks vs untreated controls", "experimental": "as §2, with “VIOTR: Viola tricolor” for “ABUTH: Abutilon theophrasti”"}}, "data": [{"molecule": "CCn1ncc(C(=O)c2ccc(C(F)(F)F)c3c2OCCS3)c1O", "note": "[Example 1-20]", "values": [{"measurement": "Pre-emergence action against ABUTH", "setting": "[1]", "result": 100, "unit": "%"}, {"measurement": "Pre-emergence action against AMARE", "setting": "[2]", "result": 100, "unit": "%"}, {"measurement": "Pre-emergence action against STEME", "setting": "Stellaria media (STEME) [3]", "result": 100, "unit": "%"}, {"measurement": "Pre-emergence action against SETVI", "setting": "Setaria viridis (SETVI) [4]", "result": 100, "unit": "%"}, {"measurement": "Post-emergence action against ABUTH", "setting": "[5]", "result": 80, "unit": "%"}, {"measurement": "Pre-emergence action against ECHCG", "setting": "[6]", "result": 100, "unit": "%"}, {"measurement": "Post-emergence action against ECHCG", "setting": "[7]", "result": 80, "unit": "%"}, {"measurement": "Post-emergence action against SETVI", "setting": "Setaria viridis (SETVI) [8]", "result": 80, "unit": "%"}, {"measurement": "Pre-emergence action against VIOTR", "setting": "Viola tricolor (VIOTR) [9]", "result": 100, "unit": "%"}]}, {"molecule": "Cn1nc(C2CC2)c(C(=O)c2ccc(C(F)(F)F)c3c2OCCS3(=O)=O)c1O", "note": "[Example 1-119]", "values": [{"measurement": "Pre-emergence action against ABUTH", "setting": "[1]", "result": 100, "unit": "%"}, {"measurement": "Pre-emergence action against AMARE", "setting": "[2]", "result": 100, "unit": "%"}, {"measurement": "Pre-emergence action against STEME", "setting": "Stellaria media (STEME) [3]", "result": 100, "unit": "%"}, {"measurement": "Post-emergence action against STEME", "setting": "Stellaria media (STEME) [10]", "result": 100, "unit": "%"}, {"measurement": "Pre-emergence action against VERPE", "setting": "Veronica persica (VERPE)", "result": 90, "unit": "%"}, {"measurement": "Post-emergence action against ABUTH", "setting": "[5]", "result": 90, "unit": "%"}, {"measurement": "Pre-emergence action against ECHCG", "setting": "[6]", "result": 80, "unit": "%"}, {"measurement": "Post-emergence action against AMARE", "setting": "[11]", "result": 100, "unit": "%"}, {"measurement": "Pre-emergence action against VIOTR", "setting": "Viola tricolor (VIOTR) [9]", "result": 100, "unit": "%"}]}, {"molecule": "Cc1nn(C)c(O)c1C(=O)c1ccc(C(F)(F)F)c2c1OCCS2", "note": "[Example 1-25]", "values": [{"measurement": "Pre-emergence action against ABUTH", "setting": "[1]", "result": 100, "unit": "%"}, {"measurement": "Pre-emergence action against AMARE", "setting": "[2]", "result": 100, "unit": "%"}, {"measurement": "Pre-emergence action against STEME", "setting": "Stellaria media (STEME) [3]", "result": 90, "unit": "%"}, {"measurement": "Post-emergence action against STEME", "setting": "Stellaria media (STEME) [10]", "result": 100, "unit": "%"}, {"measurement": "Pre-emergence action against SETVI", "setting": "Setaria viridis (SETVI) [4]", "result": 100, "unit": "%"}, {"measurement": "Pre-emergence action against VERPE", "setting": "Veronica persica (VERPE)", "result": 80, "unit": "%"}, {"measurement": "Pre-emergence action against ECHCG", "setting": "[6]", "result": 90, "unit": "%"}, {"measurement": "Post-emergence action against ECHCG", "setting": "[7]", "result": 90, "unit": "%"}, {"measurement": "Pre-emergence action against VIOTR", "setting": "Viola tricolor (VIOTR) [9]", "result": 100, "unit": "%"}]}, {"molecule": "CCn1ncc(C(=O)c2ccc(C(F)(F)F)c3c2SCS3)c1O", "note": "[Example 1-63]", "values": [{"measurement": "Pre-emergence action against AMARE", "setting": "[2]", "result": 100, "unit": "%"}, {"measurement": "Pre-emergence action against STEME", "setting": "Stellaria media (STEME) [3]", "result": 90, "unit": "%"}, {"measurement": "Post-emergence action against STEME", "setting": "Stellaria media (STEME) [10]", "result": 80, "unit": "%"}, {"measurement": "Post-emergence action against ABUTH", "setting": "[5]", "result": 80, "unit": "%"}, {"measurement": "Post-emergence action against ECHCG", "setting": "[7]", "result": 80, "unit": "%"}, {"measurement": "Post-emergence action against AMARE", "setting": "[11]", "result": 100, "unit": "%"}, {"measurement": "Pre-emergence action against VIOTR", "setting": "Viola tricolor (VIOTR) [9]", "result": 100, "unit": "%"}]}, {"molecule": "Cn1nc(CCC(F)(F)F)c(C(=O)c2ccc(C(F)(F)F)c3c2OCS3)c1O", "note": "[Example 1-127]", "values": [{"measurement": "Post-emergence action against VIOTR", "setting": "Viola tricolor (VIOTR) [12]", "result": 80, "unit": "%"}]}]}
